Counter-ions that a name gives are not always drawn.
What was measured:
[1] = Solubility in water and in physiological liquids (comparison of solid forms); format: physicochemical; conditions: compared with form A; qualitative statement
[2] = Chemical and physical stability (comparison of solid forms); format: physicochemical; conditions: compared with the amorphous form; qualitative statement

CC(C)c1nc(N(C)S(C)(=O)=O)nc(-c2ccc(F)cc2)c1/C=C/[C@@H](O)C[C@@H](O)CC(=O)O [Form B, bis[(E)-7-[4-(4-fluorophenyl)-6-isopropyl-2-[methyl(methylsulfonyl)amino]pyrimidin-5-yl](3R,5S)-3,5-dihydroxyhept-6-enoic acid] calcium salt]
solubility in water and in physiological liquids [1]: better soluble in water and in physiological liquids than form A
chemical and physical stability [2]: chemically and physically more stable than the amorphous form

From patent publication US7932387B2, “Crystalline forms of rosuvastatin calcium salt” (BASF SE, priority 2005, dated 2011)
